In ChEMBL document CHEMBL5376003, “Structure-Activity Relationship of FL118 Platform Position 7 Versus Position 9-Derived Compounds and Their Mechanism of Action and Antitumor Activity” (J Med Chem, 2023):
Activity calls are given as the source filed them. The rule behind the calls is not given here.

Columns and labels:
[1] = system: HCT-116; assay: Induction of apoptosis in human HCT-116 cells assessed as increase in intracellular ROS level at 10 to 1000 nM incubated for 4 to 8 hrs by DCFH-DA staining based fluorescence microscopy; assay type: functional, cell-based; conditions: dose 10-1000 nM, time 4-8 hrs
[2] = system: HepG2; assay: Growth inhibition of human HepG2 cells incubated for 48 hrs by MTT reagent based ELISA reader analysis; assay type: functional, cell-based; conditions: HepG2, 48 h
[3] = system: PDX27454; assay: Antitumor activity against human PDX27454 cells xenografted in SCID mouse model assessed as reduction in tumor volume at 2 mg/kg,po administrated once per week for 3 weeks; assay type: functional, organism-based
[4] = system: PDX27454; assay: Antitumor activity against human PDX27454 cells xenografted in SCID mouse model assessed as reduction in tumor volume at 8 mg/kg,po administrated once per week for 3 weeks; assay type: functional, organism-based
[5] = system: PDX14244; assay: Antitumor activity against human PDX14244 cells xenografted in SCID mouse model assessed as reduction in tumor volume at 2 mg/kg,po administrated once per week for 3 weeks; assay type: functional, organism-based
[6] = biological target: T1, DNA topoisomerase 1 (Homo sapiens) (UniProt P11387); assay: Inhibition of topoisomerase 1 (unknown origin) assessed as relaxation of supercoiled plasmid pBR322 DNA at 25 to 100 uM incubated for 30 mins by ethidium bromide staining based agarose gel electrophoresis; conditions: dose 25-100 µM
T1 sequence (whole entry): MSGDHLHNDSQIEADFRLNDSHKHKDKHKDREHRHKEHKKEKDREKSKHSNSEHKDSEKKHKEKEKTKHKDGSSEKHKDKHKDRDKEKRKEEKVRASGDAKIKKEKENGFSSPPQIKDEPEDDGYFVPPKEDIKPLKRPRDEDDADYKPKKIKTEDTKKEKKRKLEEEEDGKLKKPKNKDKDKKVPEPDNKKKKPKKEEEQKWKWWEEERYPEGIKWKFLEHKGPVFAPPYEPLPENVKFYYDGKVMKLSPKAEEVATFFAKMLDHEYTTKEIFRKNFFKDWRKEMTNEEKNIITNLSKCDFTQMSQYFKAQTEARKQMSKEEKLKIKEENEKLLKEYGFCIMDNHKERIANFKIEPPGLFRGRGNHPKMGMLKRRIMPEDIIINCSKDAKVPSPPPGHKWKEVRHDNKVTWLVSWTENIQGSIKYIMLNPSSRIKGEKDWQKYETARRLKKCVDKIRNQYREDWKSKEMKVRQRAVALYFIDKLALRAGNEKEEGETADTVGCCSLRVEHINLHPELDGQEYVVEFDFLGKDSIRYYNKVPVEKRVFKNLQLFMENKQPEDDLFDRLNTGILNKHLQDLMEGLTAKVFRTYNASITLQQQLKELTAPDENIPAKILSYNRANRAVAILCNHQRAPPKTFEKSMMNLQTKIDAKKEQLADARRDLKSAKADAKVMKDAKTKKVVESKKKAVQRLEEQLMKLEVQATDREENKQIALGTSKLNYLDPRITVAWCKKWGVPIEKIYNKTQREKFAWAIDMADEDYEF

[7] = system: HCT-116; assay: Induction of apoptosis in human HCT-116 cells assessed as modulation of DDX42 mRNA expression at 10 to 500 nM incubated for 6 to 48 hrs by RNA analysis; assay type: functional, cell-based; conditions: dose 10-500 nM, time 6-48 hrs
[8] = system: HCT-116; assay: Induction of apoptosis in human HCT-116 cells assessed as modulation of DDX47 mRNA expression at 10 to 500 nM incubated for 6 to 48 hrs by RNA analysis; assay type: functional, cell-based; conditions: dose 10-500 nM, time 6-48 hrs
[9] = system: HCT-116; assay: Induction of apoptosis in human HCT-116 cells assessed as modulation of DDX55 mRNA expression at 10 to 500 nM incubated for 6 to 48 hrs by RNA analysis; assay type: functional, cell-based; conditions: dose 10-500 nM, time 6-48 hrs
[10] = system: HCT-116; assay: Induction of apoptosis in human HCT-116 cells assessed as upregulation of BIK mRNA expression at 10 to 500 nM incubated for 6 to 48 hrs by RNA analysis; assay type: functional, cell-based; conditions: dose 10-500 nM, time 6-48 hrs
[11] = system: HCT-116; assay: Induction of apoptosis in human HCT-116 cells assessed as downregulation of GTF2H1 mRNA expression at 10 to 500 nM incubated for 6 to 48 hrs by RNA analysis; assay type: functional, cell-based; conditions: dose 10-500 nM, time 6-48 hrs
[12] = system: HCT-116; assay: Activation of innate immune response in human HCT-116 cells assessed as upregulation of IL-12B gene expression at 10 to 500 nM incubated for 6 to 48 hrs by RNA analysis; assay type: functional, cell-based; conditions: dose 10-500 nM, time 6-48 hrs
[13] = system: HCT-116; assay: Induction of apoptosis in human HCT-116 cells assessed as downregulation of END1 gene expression at 10 to 500 nM incubated for 6 to 48 hrs by RNA analysis; assay type: functional, cell-based; conditions: dose 10-500 nM, time 6-48 hrs
[14] = system: HCT-116; assay: Induction of apoptosis in human HCT-116 cells assessed as downregulation of HK2 gene expression at 10 to 500 nM incubated for 6 to 48 hrs by RNA analysis; assay type: functional, cell-based; conditions: dose 10-500 nM, time 6-48 hrs
[15] = system: HCT-116; assay: Induction of apoptosis in human HCT-116 cells assessed as downregulation of NDC1 gene expression at 10 to 500 nM incubated for 6 to 48 hrs by RNA analysis; assay type: functional, cell-based; conditions: dose 10-500 nM, time 6-48 hrs
[16] = system: HCT-116; assay: Induction of apoptosis in human HCT-116 cells assessed as downregulation of NUP107 gene expression at 10 to 500 nM incubated for 6 to 48 hrs by RNA analysis; assay type: functional, cell-based; conditions: dose 10-500 nM, time 6-48 hrs
[17] = system: HCT-116; assay: Induction of apoptosis in human HCT-116 cells assessed as downregulation of NUP155 gene expression at 10 to 500 nM incubated for 6 to 48 hrs by RNA analysis; assay type: functional, cell-based; conditions: dose 10-500 nM, time 6-48 hrs
[18] = system: HCT-116; assay: Induction of apoptosis in human HCT-116 cells assessed as downregulation of NUP210 gene expression at 10 to 500 nM incubated for 6 to 48 hrs by RNA analysis; assay type: functional, cell-based; conditions: dose 10-500 nM, time 6-48 hrs
[19] = system: HCT-116; assay: Induction of apoptosis in human HCT-116 cells assessed as downregulation of NUP62 gene expression at 10 to 500 nM incubated for 6 to 48 hrs by RNA analysis; assay type: functional, cell-based; conditions: dose 10-500 nM, time 6-48 hrs
[20] = system: HCT-116; assay: Induction of apoptosis in human HCT-116 cells assessed as downregulation of CTPS1 gene expression at 10 to 500 nM incubated for 6 to 48 hrs by RNA analysis; assay type: functional, cell-based; conditions: dose 10-500 nM, time 6-48 hrs
[21] = system: HCT-116; assay: Induction of apoptosis in human HCT-116 cells assessed as downregulation of NUDT1 gene expression at 10 to 500 nM incubated for 6 to 48 hrs by RNA analysis; assay type: functional, cell-based; conditions: dose 10-500 nM, time 6-48 hrs
[22] = system: HCT-116; assay: Induction of apoptosis in human HCT-116 cells assessed as downregulation of PPAT gene expression at 10 to 500 nM incubated for 6 to 48 hrs by RNA analysis; assay type: functional, cell-based; conditions: dose 10-500 nM, time 6-48 hrs
[23] = system: HCT-116; assay: Induction of apoptosis in human HCT-116 cells assessed as downregulation of DCTPP1 gene expression at 10 to 500 nM incubated for 6 to 48 hrs by RNA analysis; assay type: functional, cell-based; conditions: dose 10-500 nM, time 6-48 hrs
[24] = system: HCT-116; assay: Induction of apoptosis in human HCT-116 cells assessed as downregulation of HPRT1 gene expression at 10 to 500 nM incubated for 6 to 48 hrs by RNA analysis; assay type: functional, cell-based; conditions: dose 10-500 nM, time 6-48 hrs
[25] = system: HCT-116; assay: Induction of apoptosis in human HCT-116 cells assessed as downregulation of TK1 gene expression at 10 to 500 nM incubated for 6 to 48 hrs by RNA analysis; assay type: functional, cell-based; conditions: dose 10-500 nM, time 6-48 hrs

SMILES | Activity [1] | IC50 [2] [nM] | Activity [3] | Activity [7] | Activity [9] | Activity [10] | Activity [11] | Activity [12] | Activity [13] | Activity [14] | Activity [15] | Activity [16] | Activity [17] | Activity [18] | Activity [19] | Activity [20] | Activity [21] | Activity [22] | Activity [23] | Activity [25] | other results
CC[C@@]1(O)C(=O)OCc2c1cc1n(c2=O)Cc2c-1nc1cc3c(cc1c2-c1ccc(OC)cc1)OCO3 | Active | 64 | Active | Active | Active | Active | Active | Active | Active | Active | Active | Active | Active | Active | Active | Active | Active | Active | Active | Active | Activity [4]: Active; Activity [5]: Active; Topoisomerase 1 inhibition [6]: Active; Activity [8]: Active; Activity [24]: Active
CC[C@@]1(O)C(=O)OCc2c1cc1n(c2=O)Cc2cc3cc4c(cc3nc2-1)OCO4 | Active | 39.5 | – | Active | Active | Active | Active | Active | Active | Active | Active | Active | Active | Active | Active | Active | Active | Active | Active | Active | Activity [8]: Active; Activity [24]: Active
CC[C@@]1(O)C(=O)OCc2c1cc1n(c2=O)Cc2c-1nc1cc3c(cc1c2-c1cc(OC)cc(OC)c1)OCO3 | Active | 118 | Active | Active | Active | Active | Active | Active | Active | Active | Active | Active | Active | Active | Active | Active | Active | Active | Active | Active | Activity [4]: Active; Activity [5]: Active; Topoisomerase 1 inhibition [6]: Active
CCc1ccc(-c2c3c(nc4cc5c(cc24)OCO5)-c2cc4c(c(=O)n2C3)COC(=O)[C@]4(O)CC)cc1 | Active | 160 | Active | Active | Active | Active | Active | Active | Active | Active | Active | Active | Active | Active | Active | Active | Active | Active | Active | Active | Activity [4]: Active; Activity [5]: Active; Topoisomerase 1 inhibition [6]: Active; Activity [8]: Active; Activity [24]: Active
